Experimental findings from patent US20230115350A1 (Cedilla Therapeutics, Inc., priority 2021, published 2023) are described below.

pIC50: −log10 of the molar value. A value given as a limit tells only on which side of the number the result lay.

Chain of TEAD1 protein (YAP Binding Domain) (P28347 209-426 limits assumed): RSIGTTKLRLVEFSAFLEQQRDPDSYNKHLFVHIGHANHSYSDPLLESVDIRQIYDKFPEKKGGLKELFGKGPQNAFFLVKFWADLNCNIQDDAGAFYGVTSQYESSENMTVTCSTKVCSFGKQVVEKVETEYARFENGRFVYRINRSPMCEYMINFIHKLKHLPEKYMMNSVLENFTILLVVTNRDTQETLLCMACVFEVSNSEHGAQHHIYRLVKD

For this test, the target named is TEAD1 protein (YAP Binding Domain) (Homo sapiens, UniProt P28347). The test can be described thus: TEAD1 lipid pocket compound displacement assay (TR-FRET, Cy5-probe). Conditions: 60 minutes incubation at room temperature; TR-FRET 665 nm/620 nm; read-out: CDA IC50. The procedure:
Compound Displacement Assay.
A TEAD1 lipid pocket displacement assay was carried out according to the following protocol. Purified His-tagged TEAD1 protein (YAP Binding Domain) was pre-mixed with a Cy5-probe (Cy5-conjugated to a small molecule that binds in the TEAD1 lipid pocket) and Terbium-labeled anti-His antibody (Cisbio Cat 61HI2TLB). The binding of the Cy5-probe to anti-His-Tb/His-tag TEAD1 complex yielded a TR-FRET signal. […] After 60 minutes incubation at room temperature of compounds with the His-TEAD1/anti-His-Tb/Cy5-probe complex, the plate was read on a plate reader (BMG ClarioStar Cat 430-1300) using TR-FRET mode with wavelengths of 665 nm/620 nm. The potency of compounds as TEAD1 lipid pocket binders was determined by IC50 value generated using a non-linear 4 parameter curve fit.
For orientation: In TR-FRET formats the signal depends on donor and acceptor labels being close together.
By pIC50 is commonly meant the IC50 on a negative log10 scale, so that one unit is a factor of ten. `C=CC(=O)Nc1ccc(OCc2ccc(C)nc2)c(F)c1` [Compound 69, N-(3-fluoro-4-((6-methylpyridin-3-yl)methoxy)phenyl)acrylamide]: the pIC50 was less than 5.70.
`C=CC(=O)Nc1ccc(OCc2cccnc2)c(F)c1` [Compound 56, N-(3-fluoro-4-(pyridin-3-ylmethoxy)phenyl)acrylamide]: the pIC50 is less than 5.70.
As for `C=CC(=O)Nc1ccc2c(c1)OCC(c1cccc(F)c1)O2` (stereo not shown) [Compound 8, N-(2-(3-fluorophenyl)-2,3-dihydrobenzo[b][1,4]dioxin-6-yl)acrylamide], the figure is 6.30 to 6.60; as for `C=CC(=O)Nc1ccc(OCc2cccc(F)c2)cc1CC1CC1` [Compound 16, N-(2-(cyclopropylmethyl)-4-((3-fluorobenzyl)oxy)phenyl)acrylamide], less than 5.70.
As for `C=CC(=O)Nc1ccc(OCc2ccc(C#N)cc2Cl)c(F)c1` [Compound 77, N-(4-((2-chloro-4-cyanobenzyl)oxy)-3-fluorophenyl)acrylamide], the figure is less than 5.70.
As for `C=CC(=O)Nc1ccc(OCc2c(F)cccc2Cl)c(F)c1` [Compound 85, N-(4-((2-chloro-6-fluorobenzyl)oxy)-3-fluorophenyl)acrylamide], the figure is less than 5.70; as for `O=C(O)c1ccc(OCC2CCC(F)(F)CC2)c(F)c1` [Compound 35, 4-((4,4-difluorocyclohexyl)methoxy)-3-fluorobenzoic acid], 6.30 to 6.60; as for `C=CC(=O)Nc1ccc(OCc2cccc(F)c2)cc1Cc1ccncc1` [Compound 13, N-(4-((3-fluorobenzyl)oxy)-2-(pyridin-4-ylmethyl)phenyl)acrylamide], less than 5.70.
Regarding `C=CC(=O)Nc1ccc(OCc2oc(=O)oc2C)c(F)c1` [Compound 65, N-(3-fluoro-4-((5-methyl-2-oxo-1,3-dioxol-4-yl)methoxy)phenyl)acrylamide], the pIC50 was less than 5.70.
As for `C=CC(=O)Nc1ccc(OCCCC(F)(F)F)c(F)c1` [Compound 94, N-(3-fluoro-4-(4,4,4-trifluorobutoxy)phenyl)acrylamide], the figure is 5.70 to 6.30.
With `C=CC(=O)Nc1cc2nc(CCc3cccc(F)c3)oc2cc1F` [Compound 139, N-(6-fluoro-2-(3-fluorophenethyl)benzo[d]oxazol-5-yl)acrylamide], the pIC50 is 6.30 to 6.60.
For the compound `C=CC(=O)Nc1ccc(N(Cc2ccncc2)Cc2cccc(F)c2)c(F)c1` [Compound 18, N-(3-fluoro-4-((3-fluorobenzyl)(pyridin-4-ylmethyl)amino)phenyl)acrylamide], the pIC50 was less than 5.70.
As to `C=CS(=O)(=O)Nc1ccc(OCC2CCC(F)(F)CC2)c(F)c1` [Compound 34, N-(4-((4,4-difluorocyclohexyl)methoxy)-3-fluorophenyl) ethene sulfonamide], the pIC50 was not below 6.60.
As for `C=CC(=O)Nc1ccc(OCc2cccc(F)c2)c2c1CCCC2` [Compound 15, N-(4-((3-fluorobenzyl)oxy)-5,6,7,8-tetrahydronaphthalen-1-yl)acrylamide], the figure is 6.30 to 6.60; as for `C=CC(=O)Nc1ccc(OCc2cc(OC)ccc2Cl)c(F)c1` [Compound 88, N-(4-((2-chloro-5-methoxybenzyl)oxy)-3-fluorophenyl)acrylamide], 6.30 to 6.60.
Consider `C=CC(=O)Nc1ccc(OCc2cccc(F)c2)c(F)n1` [Compound 127, N-(6-fluoro-5-((3-fluorobenzyl)oxy)pyridin-2-yl)acrylamide], for which the pIC50 is not below 6.60.
